Laboratory results reported in patent US20230210797A1, “PREVENTING AND TREATING HYPOGLYCEMIA” (DIAMYD MEDICAL AB, priority 2019, published 2023).

What was measured:
[1] = Time spent below, within and above normal blood glucose range (4-10 mmol/L), FreeStyle Libre Pro FGM; type: in vivo, human; settings: for Time above range, Mean / Time above range, Median / Time below range, Mean / Time below range, Median / Time within range, Mean / Time within range, Median: normal blood glucose range 4-10 mmol/L, n=6
From the text: The FreeStyle Libre Pro FGM System is a professional glucose monitoring device indicated for detecting trends and tracking patterns and glucose level excursions above or below the desired range, facilitating therapy adjustments in persons with diabetes. Readings from the FreeStyle Libre Pro FGM System are not made available directly to patients in real time. The FreeStyle Libre Pro FGM System aids in the detection of episodes of hyperglycemia and hypoglycemia, facilitating therapy adjustments.
Patients will receive the Freestyle Libre Pro at the site at Visit 1 and Visit 2 in the Safety and Dose Escalation study and will be instructed how to return the FreeStyle Libre to the site after each of the testing period. For the main study patients will receive the Freestyle Libre Pro at the site during Visit 1 (all Treatment arms), Visit 7 (Treatment arm 1), Visit 8 (Treatment arm 2 and 3) and will be instructed how to return the FreeStyle Libre to the site after each of the testing period. However, for Visit 9 (Treatment arm 1) and Visit 10 (Treatment arm 2 and 3) patients will be instructed to come to the site 14 days before the visit to receive the Freestyle Libre and have it activated. The patients will then return the Freestyle Libre at Visit 9 or Visit 10, depending on treatment arm. The timing of the distribution of the glucose monitoring system and assessments is described in Above.
Blood glucose levels for all six patients in the dose escalation part of the study was measured during certain time intervals to determine time spent in, above, and below normal blood glucose range (4-10 mmol/L).

[2] = test system: epinephrine; test: Hypoglycemic clamp: plasma epinephrine levels; type: in vivo, human; settings: for epinephrine levels, Change from baseline, Mean (SD) / epinephrine levels, Change from baseline, Median (Min, Max) / epinephrine levels, Observed value, Mean (SD) / epinephrine levels, Observed value, Median (Min, Max): C-peptide undetectable
Protocol: In order to evaluate the counterregulatory hormone response to hypoglycemia, a hypoglycemic clamp will be performed. The Hypoglycemic Clamp must be performed according to the instructions in the Operations Manual. (Appendix 3)
The patient should: • Come to the study site following an overnight fast (>10 hours), i.e. the patient may not eat but is permitted to drink water • Not have taken the Remygen and, if applicable, Alprazolam dose in the morning • Not take short acting/direct acting insulin within 6 hours before the investigation. • The patient is allowed to take base-insulin day/night before, but not in the morning before the investigation.
Patients with CSII (insulin pump) must continue with their basal dose insulin, but not add bolus dose during the last 6 hours before the investigation.
If a patient has a blood sugar level <4 mmol/L in the morning of the scheduled visit, the patient is allowed to take dextrose tablets and then come to the study site. The patient is allowed to perform the investigation if the blood sugar level is >4 mmol/L.
In the dose-escalation part of the study, the patient will take study drug 30 min prior to start of the hypoglycemic clamp. In the main study, the study drug will instead be taken after finalization of the hypoglycemic clamp. Baseline blood samples will be obtained for glucose, glucagon, epinephrine, norepinephrine, growth hormone and cortisol. The clamp will then be initiated by an intravenous insulin infusion at a rate of 2 mU×kg^−1×min^−1. Glucose 100 mg/ml will then be administered in variable infusion rates to clamp the blood glucose concentration at 5.5 mmol/land then at 2.5 mmol/land kept stable for 30 min. Blood glucose will be evaluated repeatedly in order to find the optimal glucose infusion rate. Blood sampling to determined levels of counterregulatory hormones as described above will be performed at each of these target levels when a stable glucose concentration has been reached. The insulin infusion will thereafter be terminated and the patient is allowed to eat and will be observed until normoglycemia is achieved. If necessary, additional glucose administration will be given to allow blood glucose concentrations to normalize.
Plasma glucose was first lowered to normoglycemic levels (5.5 mmol/L) and hormone levels monitored, and then to hypoglycemic levels (2.5 mmol/L) and hormone levels monitored. Difference was calculated as a measurement of the response to hypoglycemia.

[3] = normal range 4-10 mmol/L, all six patients of dose escalation part
[4] = Visit 5, 200 mg GABA per day, Event 2.5 mmol/L
[5] = Visit 5, 200 mg GABA per day, Event 5.5 mmol/L
[6] = Visit 5, 200 mg GABA per day, Event Baseline
[7] = Visit 5, 200 mg GABA per day, Event Diff 2.5-5.5 mmol/L
[8] = Visit 7, 600 mg GABA per day, Event 2.5 mmol/L
[9] = Visit 7, 600 mg GABA per day, Event 5.5 mmol/L
[10] = Visit 7, 600 mg GABA per day, Event Baseline
[11] = Visit 7, 600 mg GABA per day, Event Diff 2.5-5.5 mmol/L
[12] = Visit 9, 1200 mg GABA per day, Event 2.5 mmol/L
[13] = Visit 9, 1200 mg GABA per day, Event 5.5 mmol/L
[14] = Visit 9, 1200 mg GABA per day, Event Baseline
[15] = Visit 9, 1200 mg GABA per day, Event Diff 2.5-5.5 mmol/L

With `NCCCC(=O)O` [GABA, Gamma-amino butyric acid] the “Time above range, Mean” value ([1]; Day 3 to 4) was 28.7%, the “Time above range, Median” value ([1]; Day 3 to 4) was 28.8% and the “Time below range, Mean” value ([1]; Day 3 to 4) was 14.8%. The “Time below range, Median” value ([1]; Day 3 to 4) was 14.3%, the “Time within range, Mean” value ([1]; Day 3 to 4) was 56.6% and the “Time within range, Median” value ([1]; Day 3 to 4) was 62.0%. The “Time above range, Mean” value ([1]; Day 6 to 7) was 37.7%, the “Time above range, Median” value ([1]; Day 6 to 7) was 36.5% and the “Time below range, Mean” value ([1]; Day 6 to 7) was 4.8%. The “Time below range, Median” value ([1]; Day 6 to 7) was 4.0%, the “Time within range, Mean” value ([1]; Day 6 to 7) was 57.6% and the “Time within range, Median” value ([1]; Day 6 to 7) was 59.5%. For the same compound, the “Time above range, Mean” value ([1]; Day 9) was 39.5%, the “Time above range, Median” value ([1]; Day 9) was 50.0% and the “Time below range, Mean” value ([1]; Day 9) was 5.5%. For the same compound, the “Time below range, Median” value ([1]; Day 9) was 2.5%, the “Time within range, Mean” value ([1]; Day 9) was 55.0% and the “Time within range, Median” value ([1]; Day 9) was 47.0%. For the same compound, the “Time above normal blood glucose range, effect of GABA treatment” value [1, 3] was “decreased”, the “Time below normal blood glucose range, effect of GABA treatment” value [1, 3] was “decreased” and the “Time in normal blood glucose range, effect of GABA treatment” value [1, 3] was “increased”. For the same compound, the “epinephrine levels, Change from baseline, Mean (SD)” value (from here on “epinephrine levels, Change … (SD)”) [2, 4] was 0.800 (0.720) nmol/L, the “epinephrine levels, Change from baseline, Median (Min, Max)” value (from here on “epinephrine levels, Change … (Min, Max)”) [2, 4] was 0.400 (0.30, 2.00) nmol/L and the “epinephrine levels, Observed value, Mean (SD)” value [2, 4] was 1.640 (1.014) nmol/L. The “epinephrine levels, Observed value, Median (Min, Max)” value [2, 4] was 1.200 (0.50, 2.90) nmol/L, the “epinephrine levels, Change … (SD)” value [2, 5] was 0.000 (0.000) nmol/L and the “epinephrine levels, Change … (Min, Max)” value [2, 5] was 0.000 (0.00, 0.00) nmol/L. The “epinephrine levels, Observed value, Mean (SD)” value [2, 5] was 0.150 (0.000) nmol/L, the “epinephrine levels, Observed value, Median (Min, Max)” value [2, 5] was 0.150 (0.15, 0.15) nmol/L and the “epinephrine levels, Change … (SD)” value [2, 6] was 0.000 (0.000) nmol/L. For the same compound, the “epinephrine levels, Change … (Min, Max)” value [2, 6] was 0.000 (0.00, 0.00) nmol/L, the “epinephrine levels, Observed value, Mean (SD)” value [2, 6] was 0.150 (0.000) nmol/L and the “epinephrine levels, Observed value, Median (Min, Max)” value [2, 6] was 0.150 (0.15, 0.15) nmol/L. For the same compound, the “epinephrine levels, Change … (SD)” value [2, 7] was 0.800 (0.720) nmol/L, the “epinephrine levels, Change … (Min, Max)” value [2, 7] was 0.400 (0.30, 2.00) nmol/L and the “epinephrine levels, Observed value, Mean (SD)” value [2, 7] was 1.490 (1.014) nmol/L. The “epinephrine levels, Observed value, Median (Min, Max)” value [2, 7] was 1.050 (0.35, 2.75) nmol/L, the “epinephrine levels, Change … (SD)” value [2, 8] was 0.560 (0.585) nmol/L and the “epinephrine levels, Change … (Min, Max)” value [2, 8] was 0.800 (−0.40, 1.10) nmol/L. The “epinephrine levels, Observed value, Mean (SD)” value [2, 8] was 1.400 (0.579) nmol/L, the “epinephrine levels, Observed value, Median (Min, Max)” value [2, 8] was 1.700 (0.60, 2.00) nmol/L and the “epinephrine levels, Change … (Min, Max)” value [2, 9] was 0.000 (0.00, 0.25) nmol/L. For the same compound, the “epinephrine levels, Observed value, Median (Min, Max)” value [2, 9] was 0.150 (0.15, 0.40) nmol/L, the “epinephrine levels, Change … (SD)” value [2, 10] was 0.000 (0.000) nmol/L and the “epinephrine levels, Change … (Min, Max)” value [2, 10] was 0.000 (0.00, 0.00) nmol/L. The “epinephrine levels, Observed value, Mean (SD)” value [2, 10] was 0.150 (0.000) nmol/L, the “epinephrine levels, Observed value, Median (Min, Max)” value [2, 10] was 0.150 (0.15, 0.15) nmol/L and the “epinephrine levels, Change … (SD)” value [2, 11] was 0.510 (0.564) nmol/L. For the same compound, the “epinephrine levels, Change … (Min, Max)” value [2, 11] was 0.600 (−0.40, 1.10) nmol/L, the “epinephrine levels, Observed value, Mean (SD)” value [2, 11] was 1.200 (0.630) nmol/L and the “epinephrine levels, Change … (SD)” value [2, 12] was 0.670 (0.709) nmol/L. The “epinephrine levels, Change … (Min, Max)” value [2, 12] was 0.500 (0.00, 1.70) nmol/L, the “epinephrine levels, Observed value, Mean (SD)” value [2, 12] was 1.510 (1.070) nmol/L and the “epinephrine levels, Observed value, Median (Min, Max)” value [2, 12] was 1.200 (0.15, 2.60) nmol/L. The “epinephrine levels, Change … (SD)” value [2, 13] was 0.000 (0.000) nmol/L, the “epinephrine levels, Change … (Min, Max)” value [2, 13] was 0.000 (0.00, 0.00) nmol/L and the “epinephrine levels, Observed value, Mean (SD)” value [2, 13] was 0.150 (0.000) nmol/L. For the same compound, the “epinephrine levels, Observed value, Median (Min, Max)” value [2, 13] was 0.150 (0.15, 0.15) nmol/L, the “epinephrine levels, Change … (SD)” value [2, 14] was 0.000 (0.000) nmol/L and the “epinephrine levels, Change … (Min, Max)” value [2, 14] was 0.000 (0.00, 0.00) nmol/L. The “epinephrine levels, Observed value, Mean (SD)” value [2, 14] was 0.150 (0.000) nmol/L, the “epinephrine levels, Observed value, Median (Min, Max)” value [2, 14] was 0.150 (0.15, 0.15) nmol/L and the “epinephrine levels, Change … (SD)” value [2, 15] was 0.670 (0.709) nmol/L. The “epinephrine levels, Change … (Min, Max)” value [2, 15] was 0.500 (0.00, 1.70) nmol/L, the “epinephrine levels, Observed value, Median (Min, Max)” value [2, 15] was 1.050 (0.00, 2.45) nmol/L and the “Counter regulatory response of Epinephrine, effect of GABA treatment” value ([2]; change in levels when clamping to 2.5 mmol/L from 5.5 mmol/L) was “increased”.
